According to patent publication US10519211B2, “Compounds as peptidic GLP1/glucagon/GIP receptor agonists” (SANOFI, priority 2016, dated 2019):
Numbered stars: 1 amine (or outer) side, 2 acyl side, 3 side chain; on linkers, the order of the positions; unused ones are H or OH. Square brackets hold non-standard residues; d marks the D form. Side chains are listed from the residue outwards. Peptide text beside a SMILES is read from it. * marks the point of attachment. γGlu = O=C(O)[C@H](CCC(=O)[*:2])N[*:1]; Palmitoyl = CCCCCCCCCCCCCCCC(=O)*; Aib = CC(C)(N)C(=O)O

Experiments:
Type in all cases: physicochemical
[1] = Chemical stability assessment (UPLC-UV, relative purity loss); settings: 1 mg/ml, 25 mM acetate buffer pH 4.5 with m-cresol (buffer system A)
Method in brief: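 Peptide at 1 mg/mL (purity-corrected) in 25 mM acetate pH 4.5 with methionine, m-cresol and glycerol, sterile-filtered, stored 28 days at 40° C. Purity measured by UPLC-UV as peptide peak area fraction at start and after storage; value is relative percent purity loss.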

[2] = Dynamic light scattering (DLS), hydrodynamic radius as surrogate for interaction parameter kD
Method in brief: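 Rh and diffusion constant measured in triplicate at 1 and 5 mg/ml peptide in 25 mM acetate pH4.5 with methionine, m-cresol and glycerol, at 25°C, 830 nm, 158°. Rh5<Rh1 or D5>D1 taken as kD>0, indicating repulsive interactions.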

[3] = Thioflavin T (ThT) assay for physical stability (fibrillation); settings: 3 mg/ml, 100 mM acetate pH 4.5 with m-cresol, shaking at 37° C.
Method in brief: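 Peptide at 3 mg/ml with 100 μM ThT in 100 mM acetate pH 4.5 with m-cresol, stressed at 37° C by cycles of 10 s shaking at 960 rpm and 50 s rest. Fluorescence read every 20 minutes, eight replicates; lag time in hours.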

Chemical stability [relative purity loss 28 days 40° C.] (%) at pH 4.5 [1]: 6.8%
Delta Rh [nm] = Rh5 − Rh1 ([2]; DLS buffer system A pH 4.5): −0.3 nm
Rh1 [nm] c= 1 mg/ml ([2]; hydrodynamic radius, 1 mg/ml, DLS buffer system A pH 4.5, DLS method C, 25° C.): 2.8 nm
Rh5 [nm] c = 5 mg/ml ([2]; hydrodynamic radius, 5 mg/ml, DLS buffer system A pH 4.5, DLS method C, 25° C.): 2.4 nm
Lag time before increase [3]: >45 h
SMILES: CCCCCCCCCCCCCCCC(=O)N[C@@H](CCC(=O)N[C@@H](CCC(=O)NCCCC[C@H](NC(=O)[C@H](CC(C)C)NC(=O)[C@H](CCCCN)NC(=O)[C@H](CO)NC(=O)[C@H](CC(C)C)NC(=O)[C@H](CC(=O)O)NC(=O)[C@H](CO)NC(=O)[C@@H](NC(=O)[C@H](Cc1ccccc1)NC(=O)[C@@H](NC(=O)CNC(=O)[C@H](CCC(N)=O)NC(=O)C(C)(C)NC(=O)[C@@H](N)Cc1c[nH]cn1)[C@@H](C)O)[C@@H](C)O)C(=O)N[C@@H](CCC(=O)O)C(=O)N[C@@H](CCCCN)C(=O)N[C@@H](CCC(N)=O)C(=O)N[C@@H](CCCNC(=N)N)C(=O)N[C@@H](CCC(N)=O)C(=O)NC(C)(C)C(=O)N[C@@H](CCC(=O)O)C(=O)N[C@@H](Cc1ccccc1)C(=O)N[C@H](C(=O)N[C@@H](CCC(=O)O)C(=O)N[C@@H](Cc1c[nH]c2ccccc12)C(=O)N[C@@H](CC(C)C)C(=O)N[C@@H](CCCCN)C(=O)N[C@@H](C)C(=O)N[C@H](C)C(=O)NCC(=O)N1CCC[C@H]1C(=O)N1CCC[C@H]1C(=O)N[C@@H](CO)C(=O)NC(C)(C)C(=O)N[C@@H](CCCCN)C(=O)N1CCC[C@H]1C(=O)N1CCC[C@H]1C(=O)N1CCC[C@H]1C(=O)N[C@@H](CCCCN)C(N)=O)[C@@H](C)CC)C(=O)O)C(=O)O [SEQ ID NO: 7, H-Aib-Q-G-T-F-T-S-D-L-S-K-L-K[gGlu-gGlu-Palm]-E-K-Q-R-Q-Aib-E-F-I-E-W-L-K-A-dAla-G-P-P-S-Aib-K-P-P-P-K-NH2] (H-H[Aib]QGTFTSDLSKLK([γGlu-γGlu-Palmitoyl])EKQRQ[Aib]EFIEWLKA[dA]GPPS[Aib]KPPPK-NH2)
